# Data as given in patent publication US20160175485A1, “COMBINATION THERAPY TO PROMOTE WOUND HEALING” (THE REGENTS OF THE UNIVERSITY OF CALIFORNIA, priority 2013, published 2016).
# Key:
# [1] = tested on: BM-MSC; assay: Real time PCR (TLR2, ADRB2 mRNA) in BM-MSC; type: cell-based, human
# Protocol: (§1) Epinephrine (EPI: Sigma) and TLR2 ligands (macrophage activating lipoprotein-2: MALP2—that specifically activates TLR2/6 heterodimerization, and heat killed Staphylococcus aureus: HKSA; Invivogen) treatments were carried out at the indicated times and concentrations. All the cells were maintained in 0.5% fetal bovine serum containing culture medium overnight prior to treatment. Cells were exposed to different treatments in fresh serum-free medium. In some experiments, cells were pretreated for 30 minutes with Timolol (10 μM; Sigma) or ICI-118, 551 (ICI; 10 μM; Tocris) followed by EPI and MALP2 treatment as described previously (11-13, 30).
# mRNA expression was determined by real-time PCR (RT-PCR), using sequence-specific primers and probes. Total RNA was extracted from the cells using Qiagen RNeasy mini kit. The first strand of cDNA was synthesized using 1 μg of total RNA. cDNA (50 ng) was amplified using primer probe sets for TLR2, beta-2-adrenergic receptor (ADRB2) and three housekeeping genes: beta-2-microglobulin, GAPDH, and RPLPO using standard cycling parameters. Data were calculated using the 2-ΔΔCt method and are presented as fold change (ratio of transcripts of gene normalized to the three house-keeping genes) (11-13, 31).
# [2] = tested on: NHK; assay: Western blots (PNMT, TH) in NHK; type: cell-based, human
# Protocol: as §1
# Twenty five μg of total protein was resolved, transferred, and probed with antibodies for β2-AR (Abcam), phospho beta-adrenergic receptor activated kinase-1 (BARK-1/GRK2 referred to as BARK-1 from here after; GeneTex), TLR2 (Imgenex) Myeloid differentiation factor 88 (MyD88; Imgenex), phospho interleukin receptor activated kinase-1 (pIRAK-1 and IRAK-1; Cell Signaling), phospho ERK1/2 (Santacruz), phenylethanolamine N-methyltransferase (PNMT) and tyrosine hydroxylase (TH), and stripped membranes were further incubated with respective total antibodies or GAPDH or α-tubulin. TLR2 (Imgenex) and β2-AR (Santacruz) antibodies were used for co-immunoprecipation assays and antibody protein complexes were further probed with above antibodies β1). […]
# [3] = tested on: BM-MSC; assay: Western blots in BM-MSC; type: cell-based, human
# Protocol: as §1
# (§2) Twenty five μg of total protein was resolved, transferred, and probed with antibodies for β2-AR (Abcam), phospho beta-adrenergic receptor activated kinase-1 (BARK-1/GRK2 referred to as BARK-1 from here after; GeneTex), TLR2 (Imgenex) Myeloid differentiation factor 88 (MyD88; Imgenex), phospho interleukin receptor activated kinase-1 (pIRAK-1 and IRAK-1; Cell Signaling), phospho ERK1/2 (Santacruz), phenylethanolamine N-methyltransferase (PNMT) and tyrosine hydroxylase (TH), and stripped membranes were further incubated with respective total antibodies or GAPDH or α-tubulin. TLR2 (Imgenex) and β2-AR (Santacruz) antibodies were used for co-immunoprecipation assays and antibody protein complexes were further probed with above antibodies β1). Protein A/G-sepharose beads and isotype matched IgG antibodies were used as negative controls in all the co-immunoprecipitation experiments along with the antibody used for the pull down as a positive control. Band intensities were determined as described previously and normalized to GAPDH/α-tubulin or total protein (BARK-1) and densitometric ratios are presented as fold change vs control β1). For some experiments, cell lysates from three independent experiments were pooled to get enough protein for the assay and repeated three times for densitometry purposes.
# [4] = tested on: BM-MSC; assay: Secreted IL-6 ELISA in BM-MSC; type: cell-based, human; settings: for increase in IL-6 secretion as compared to untreated control cells: four hours, EPI 50 nM, MALP2 100 ng/ml, HKSA 10^4 cells/ml
# Source text: (§3) Human bone marrow aspirations obtained from four healthy donors were purchased from Lonza. MSC were harvested from bone marrow (BM) following established protocols (26, 27), and used between passages 3-5. Characterization of MSC included differentiation into osteogenic and adipogenic lineage cells, as described previously (27). The stem cell research oversight (SCRO) review board at the University of California, Davis approved all the human cell protocols.
# as §1
# (§4) Levels of interleukin-6 (IL-6) were measured with an ELISA kit (R&D systems). IL-6 levels were normalized to total cell protein and expressed as pg/μg protein β1).
# [5] = tested on: NHK; assay: Secreted IL-6 ELISA in NHK; type: cell-based, human; settings: for increase in IL-6 secretion as compared to untreated NHK: four hours, EPI 50 nM, MALP2 100 ng/ml, HKSA 10^4 cells/ml
# Source text: NHK were isolated from human neonatal foreskins, cultured and maintained, as reported earlier (28,29). NHKs isolated from at least three different foreskins and between passages 3 and 7 were used in all the experiments. The Institutional Review Board at UC Davis approved the protocol for obtaining discarded neonatal foreskins.
# as §1, §4
# [6] = tested on: NHK; assay: Co-immunoprecipitation with β2-AR and TLR2 antibody in NHK; type: cell-based, human; settings: MALP2 100 ng/ml
# Source text: as §2
# [7] = tested on: NHK; assay: HPLC detection of catecholamines in NHK supernatants; type: cell-based, human
# Protocol: (§5) Cell culture samples from at least from three independent experiments were acidified with perchloric acid to 0.2N prior to storage at −80° C. for future analysis. The supernatant were applied to conditioned MonoSpin® PBA solid phase extraction spin columns (GL Sciences) and purifications were performed according to the manufacturer's specifications. Catecholamines were eluted in 200 μL of 2% acetic acid.
# (§6) HPLC separation was performed using a Synergi™ 4 um Fusion-reverse phase 250×4.6 mm column (Phenomenex) and a HP series 1050 pump and auto injector system. The mobile phase for chromatographic separation was a modification of that used by Leis et al (33). Detection of catecholamine compounds was performed using a LC-4C amperometric detector (Bioanalytical Systems) using potential of […]. Catecholamine levels are presented as pg/μg cell protein.
# [8] = tested on: BM-MSC; assay: HPLC detection of catecholamines in BM-MSC supernatants; type: cell-based, human; settings: MALP2 100 ng/ml
# Protocol: as §5, §6
# [9] = tested on: BM-MSC; assay: Single-cell migration of BM-MSC; type: cell-based, human; settings: EPI 50 nM, MALP2 100 ng/ml, Timolol 10 μM, 30 min pretreatment
# Source text: as §3, §1
# [10] = tested on: NHK; assay: Scratch wound assay in confluent NHK cultures; type: cell-based, human; settings: 30 minutes pretreatment; for IL-6 secretion in wounded NHK confluent sheets: antagonists 10 μM; for effect on EPI+MALP2 or EPI+HKSA delayed NHK migration: scratch-wounded NHK, antagonist 10 μM
# Protocol: as §4
# The rate of healing scratch wounds made in confluent NHK cultures was determined as reported previously (30, 32). Briefly, cells were pretreated with 10 μg/ml mitomycin (EMD Millipore) for 1 hr to inhibit cell proliferation that could skew the data analysis. Wounded cultures were incubated in growth medium (control) containing EPI, TLR2 ligands, and/or Timolol or ICI. Velocity Image analysis software (Perkin Elmer) was used to measure the scratch wound area, which is expressed as percent closed wound.
# [11] = tested on: C57BL/6J mice; assay: Full-thickness cutaneous wounds in EPI stressed mice (osmotic pumps); type: in vivo, mouse; settings: for wound closure: EPI 7 mg/kg body weight/day, ICI 0.7 mg/kg body weight/day by osmotic pump; for TLR2 expression in wound tissue: day 7 after injury; for IL-6 levels in the wound tissue / phosphorylation of ERK1/2 in wounds: mouse, in vivo
# Protocol: C57BL/6J (male; 8-10 week age; Jax Mice) with ad libitum access to food and water were anesthetized using isoflurane and one 6 mm circular diameter full-thickness wound was placed on the dorsal shaved skin β1). Micro-osmotic pumps (0.25 μl/hour; Alzet micro-osmotic pump Model: 1002, Alzet) were implanted on the right flank of the mice to deliver 7 mg/kg body weight/day EPI and 0.7 mg/kg body weight/day of ICI) as we have previously reported (11-13,30). At 7 or 11 days after injury, the mice were euthanized, the wound tissue was harvested by 8 mm punch excision and stored frozen or formalin—fixed until further analysis. Animal protocols were approved by the IACUC at UC Davis.
# [12] = tested on: Bone marrow MSCs; assay: BM-MSC migration tracked for 12 hours after antagonist treatment (FIG. 11); type: cell-based, human; settings: treated 1 hour, tracked 12 hours
# Protocol: FIG. 11 illustrates that results are not limited to one class of beta adrenergic antagonist. Bone marrow MSCs from two different individuals were cultured and treated with either a non-specific beta adrenergic receptor antagonist (timolol) or a beta 2 adrenergic receptor specific antagonist (ICI 118,551) at stated concentrations for 1 hour, then cell migration was tracked for 12 hours. For each experiment 80-90 cells were tracked. Means+/−SEM shown, *=p<0.005.
# [13] = cited from earlier work
# [14] = tested on: RAW 264.7 macrophages; settings: cited from earlier work
# [15] = tested on: murine macrophages; settings: epinephrine pretreatment; cited from earlier work
# [16] = tested on: monocytic cell line and rat macrophages; settings: supraphysiologic levels of EPI (5000-10,000 ng/ml); cited from earlier work
# [17] = BM-MSC, Timolol 10 μM, 30 min pretreatment
compound,measurement,setting,value
MALP2,β2-adrenergic receptor mRNA expression,[1]; MALP2 100 ng/ml,significantly up-regulated
same,PNMT and TH enzymes,[2],induced
same,BARK-1 phosphorylation,[3],significantly increased
same,PNMT and TH enzymes,[3],induced
same,β2-adrenergic receptor protein expression,[3]; MALP2 100 ng/ml,significantly up-regulated
same,increase in IL-6 secretion as compared to untreated control cells,[4]; BM-MSC,2.6 fold
same,increase in IL-6 secretion as compared to untreated NHK,[5],8.8 fold
same,β2-AR expression and BARK-1 phosphorylation in TLR2 immunoprecipitates,[6],noticeable increase
same,catecholamine response of NHKs relative to BM-MSC,[7]; MALP2 treated,2-4 fold
same,EPI and norepinephrine levels in cell culture supernatants,"[7]; NHK, MALP2 100 ng/ml",increased
same,EPI and norepinephrine levels in cell culture supernatants,[8],increased
same,inhibition in migratory speed,[9],15%
"Cc1ccc(OCC(O)C(C)NC(C)C)c2c1CCC2 (stereo not drawn) [ICI 118,551]",IL-6 secretion in wounded NHK confluent sheets,[10],reverses
same,effect on EPI+MALP2 or EPI+HKSA delayed NHK migration,[10],reverses
same,IL-6 release by human keratinocytes under β adrenergic receptor antagonist,[5],suppression
same,wound closure,[11],reversed
same,TLR2 expression in wound tissue,[11],reversed
same,IL-6 levels in the wound tissue,[11],decreased
same,phosphorylation of ERK1/2 in wounds,[11],increases
same,migratory speed of bone marrow derived MSC,[12],increase migratory speed
CC(C)(C)NC[C@H](O)COc1nsnc1N1CCOCC1 [Timolol],decrease of EPI+HKSA induced IL-6 secretion by pretreatment,[4]; [17],1.5 fold
same,decrease of EPI+MALP2 induced IL-6 secretion by pretreatment,[4]; [17],33 fold
same,IL-6 levels,"[4]; BM-MSC, mean±SD, antagonist 10 μM, 30 min pretreatment",4.8±2.7 pg/μg protein
same,IL-6 secretion in wounded NHK confluent sheets,[10],reverses
same,effect on EPI+MALP2 or EPI+HKSA delayed NHK migration,[10],reverses
same,IL-6 release by human keratinocytes under β adrenergic receptor antagonist,[5],suppression
same,migratory speed of bone marrow derived MSC,[12],increase migratory speed
CC(C)(C)NCC(O)COc1cccc2c1CC(O)C(O)C2 (stereo not drawn) [Nadolol],lipid solubility,[13],low
Polymyxin B,effect of pretreatment on EPI or MALP2 induced IL-6 levels,"[4]; BM-MSC, endotoxin control",did not affect
OCc1cc(C(O)CNCCCCCCOCCCCc2ccccc2)ccc1O (stereo not drawn) [salmeterol],IL-1β and IL-6 protein production,[14],significant increase
same,increase in IL-1β transcripts,[14],80 fold
same,increase in IL-6 transcripts,[14],8 fold
"CNC[C@H](O)c1ccc(O)c(O)c1 [EPI, Epinephrine]",TLR2 mRNA expression,[1]; EPI 50 nM,significantly increased
same,BARK-1 phosphorylation,[3],increased
same,MyD88 protein expression,[3]; EPI 50 nM,significantly elevated
same,TLR2 protein levels,[3]; EPI 50 nM,significantly increased
same,TNF-α production with LPS stimulation,[15],significantly increases
same,increase in IL-6 secretion as compared to untreated control cells,[4]; BM-MSC,3.8 fold
same,EPI concentration of maximal induction of IL-6 secretion,"[4]; EPI 50-1000 nM, 4 hr and 24 hr",50 nM
same,increase in IL-6 secretion as compared to untreated NHK,[5],16 fold
same,wound closure,[11],significantly decreased
same,TLR2 expression in wound tissue,[11],increased
same,IL-6 levels in the wound tissue,[11],significantly elevated
same,phosphorylation of ERK1/2 in wounds,[11],Decreased
same,TLR4 mRNA expression,[16],decreases
